Results as given in the supplement of paper PMC11208160.

Assay: recombinant UMI read abundance after kanamycin selection (control-corrected) (log10(CPM+1)); higher = more efficient recombination; extreme values may be limits of the assay; sequences stand for … in AGTGCAGAGAAAATCGGCCAGTTTTCTCTGCCTGCAGTCCGCATGCCGTGGGACCCCTTGGGTTCTAACCTGTTGCCTAGATTTATGCAGCGGACTGCCTTTCTCCCAAAGTGATAAACCGG…AGGTTGGTTTCACT; site = the 11-nt donor
Outline: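 Counts of recombinant UMIs were reported as log10(CPM+1). Before that, they were converted to CPM, averaged over replicates and scaled using control-derived factors. They came from PCR across the donor–target junction after Escherichia coli carrying the pair library and target plasmid was plated on IPTG (0.07 mM) plus kanamycin, or unselected, in two replicates each.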
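Further: IS621 bridge recombinase in Escherichia coli cells against a fixed T5 target plasmid.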

Row | Sequence | recombinant UMI read abundance (log10)
1 | TGCAATCCATGGACCGGTTTTCCCGGTAATCCGTATTTGTT (site CGGAATCCTAA) | 0.0106
2 | TGCAATCCATGGACCGGTTTTCCCGGTAATCCGTATTTGTT (site TGCAATCCTAA) | 0.672
3 | TGCAATTCATGGACCGGTTTTCCCGGTAATCCGTATTTGCC (site TACAATTCTGG) | 0
4 | TGCAATTCATGGACCGGTTTTCCCGGTAATCCGTATTTGCC (site TCCAATTCTGG) | 0
5 | TGCAATTCATGGACCGGTTTTCCCGGTAATCCGTATTTGCC (site TGCAATTCTGG) | 0.00516
6 | TGCAATTCATGGACCGGTTTTCCCGGTAATCCGTATTTGCC (site TTCAATTCTGG) | 0
7 | TGCACGACATGGACCGGTTTTCCCGGTAATCCGTATTTGCC (site TGCACGACTGG) | 1.52
8 | TGCACGTCATGGACCGGTTTTCCCGGTAATCCGTATTTGTC (site TGCACGTCTGA) | 1.26
9 | TGCACTGCATGGACCGGTTTTCCCGGTAATCCGTATTTGCA (site TGCACTGCTTG) | 0.198
10 | TGCCACGCATGGACCGGTTTTCCCGGTAATCCGTATTTGTC (site TGCCACGCTGA) | 2.07
11 | TGCCAGGCATGGACCGGTTTTCCCGGTAATCCGTATTTGGT (site TGCAAGGCTAC) | 0.016
12 | TGCCAGGCATGGACCGGTTTTCCCGGTAATCCGTATTTGGT (site TGCCAGGCTAC) | 0.00408
13 | TGCCAGGCATGGACCGGTTTTCCCGGTAATCCGTATTTGGT (site TGCGAGGCTAC) | 0.0315
14 | TGCCAGGCATGGACCGGTTTTCCCGGTAATCCGTATTTGGT (site TGCTAGGCTAC) | 0.0336
15 | TGCCATGCATGGACCGGTTTTCCCGGTAATCCGTATTTGGA (site TGCCATGCTTC) | 0.294
16 | TGCCGAACATGGACCGGTTTTCCCGGTAATCCGTATTTGAT (site TGCCGAACTAT) | 1.59
17 | TGCCGACCATGGACCGGTTTTCCCGGTAATCCGTATTTGTT (site TGCCGACCTAA) | 0.0263
18 | TGCCGTTCATGGACCGGTTTTCCCGGTAATCCGTATTTGAG (site TGCCGTTCTCT) | 0.00558
19 | TGCCTAACATGGACCGGTTTTCCCGGTAATCCGTATTTGAA (site TGCCTAACTTT) | 0.0425
20 | TGCCTAGCATGGACCGGTTTTCCCGGTAATCCGTATTTGTT (site AGCCTAGCTAA) | 0.014
21 | TGCCTAGCATGGACCGGTTTTCCCGGTAATCCGTATTTGTT (site CGCCTAGCTAA) | 0.0169
22 | TGCCTAGCATGGACCGGTTTTCCCGGTAATCCGTATTTGTT (site GGCCTAGCTAA) | 0.0245
23 | TGCCTAGCATGGACCGGTTTTCCCGGTAATCCGTATTTGTT (site TGCCTAGCTAA) | 0.0135
24 | TGCCTCTCATGGACCGGTTTTCCCGGTAATCCGTATTTGCG (site TGCCTCTCTCG) | 0.00512
25 | TGCGAGGCATGGACCGGTTTTCCCGGTAATCCGTATTTGGT (site TGCAAGGCTAC) | 0.35

Row | Sequence | recombinant UMI read abundance (log10)
26 | TGCGAGGCATGGACCGGTTTTCCCGGTAATCCGTATTTGGT (site TGCCAGGCTAC) | 0.0134
27 | TGCGAGGCATGGACCGGTTTTCCCGGTAATCCGTATTTGGT (site TGCGAGGCTAC) | 0.0084
28 | TGCGAGGCATGGACCGGTTTTCCCGGTAATCCGTATTTGGT (site TGCTAGGCTAC) | 0.242
29 | TGCGGAACATGGACCGGTTTTCCCGGTAATCCGTATTTGCG (site TGCGGAACTCG) | 0.885
30 | TGCGGCACATGGACCGGTTTTCCCGGTAATCCGTATTTGCC (site TGCGGCACTGG) | 1.44
31 | TGCGGCACATGGACCGGTTTTCCCGGTAATCCGTATTTGGA (site TGCGGCACTTC) | 0.0197
32 | TGCGGGCCATGGACCGGTTTTCCCGGTAATCCGTATTTGCT (site TGCGGGCCTAG) | 0
33 | TGCGGTTCATGGACCGGTTTTCCCGGTAATCCGTATTTGAA (site TGCGGTTCTTT) | 0.557
34 | TGCTACGCATGGACCGGTTTTCCCGGTAATCCGTATTTGGT (site TGCTAAGCTAC) | 0.00535
35 | TGCTACGCATGGACCGGTTTTCCCGGTAATCCGTATTTGGT (site TGCTACGCTAC) | 0.202
36 | TGCTACGCATGGACCGGTTTTCCCGGTAATCCGTATTTGGT (site TGCTAGGCTAC) | 0
37 | TGCTACGCATGGACCGGTTTTCCCGGTAATCCGTATTTGGT (site TGCTATGCTAC) | 0.00567
38 | TGCTAGCCATGGACCGGTTTTCCCGGTAATCCGTATTTGGT (site TGCTAGACTAC) | 0.00818
39 | TGCTAGCCATGGACCGGTTTTCCCGGTAATCCGTATTTGGT (site TGCTAGCCTAC) | 0.0034
40 | TGCTAGCCATGGACCGGTTTTCCCGGTAATCCGTATTTGGT (site TGCTAGGCTAC) | 0.0165
41 | TGCTAGCCATGGACCGGTTTTCCCGGTAATCCGTATTTGGT (site TGCTAGTCTAC) | 0.00984
42 | TGCTAGGCATGGACCGGTTTTCCCGGTAATCCGTATTTGCT (site TGCTAGGCTAA) | 0.0205
43 | TGCTAGGCATGGACCGGTTTTCCCGGTAATCCGTATTTGCT (site TGCTAGGCTAC) | 0.0125
44 | TGCTAGGCATGGACCGGTTTTCCCGGTAATCCGTATTTGCT (site TGCTAGGCTAG) | 0.521
45 | TGCTAGGCATGGACCGGTTTTCCCGGTAATCCGTATTTGCT (site TGCTAGGCTAT) | 0.00772
46 | TGCTAGGCATGGACCGGTTTTCCCGGTAATCCGTATTTGGA (site TGCTAGGCTAC) | 0.138
47 | TGCTAGGCATGGACCGGTTTTCCCGGTAATCCGTATTTGGA (site TGCTAGGCTCC) | 0.0137
48 | TGCTAGGCATGGACCGGTTTTCCCGGTAATCCGTATTTGGA (site TGCTAGGCTGC) | 0
49 | TGCTAGGCATGGACCGGTTTTCCCGGTAATCCGTATTTGGA (site TGCTAGGCTTC) | 0.261
50 | TGCTAGGCATGGACCGGTTTTCCCGGTAATCCGTATTTGGC (site TGCTAGGCTAC) | 0.0365

Row | Sequence | recombinant UMI read abundance (log10)
51 | TGCTAGGCATGGACCGGTTTTCCCGGTAATCCGTATTTGGC (site TGCTAGGCTCC) | 0.013
52 | TGCTAGGCATGGACCGGTTTTCCCGGTAATCCGTATTTGGC (site TGCTAGGCTGC) | 0
53 | TGCTAGGCATGGACCGGTTTTCCCGGTAATCCGTATTTGGC (site TGCTAGGCTTC) | 0.0105
54 | TGCTAGGCATGGACCGGTTTTCCCGGTAATCCGTATTTGTT (site TGCTAGGCTAA) | 0.282
55 | TGCTAGGCATGGACCGGTTTTCCCGGTAATCCGTATTTGTT (site TGCTAGGCTAC) | 0.00683
56 | TGCTAGGCATGGACCGGTTTTCCCGGTAATCCGTATTTGTT (site TGCTAGGCTAG) | 0.00242
57 | TGCTAGGCATGGACCGGTTTTCCCGGTAATCCGTATTTGTT (site TGCTAGGCTAT) | 0
58 | TGCTGCCCATGGACCGGTTTTCCCGGTAATCCGTATTTGTC (site TGCTGCCCTGA) | 0.338
59 | TGGAACCCATGGACCGGTTTTCCCGGTAATCCGTATTTGTT (site CGGAATCCTAA) | 0
60 | TGGAACCCATGGACCGGTTTTCCCGGTAATCCGTATTTGTT (site TGGAACCCTAA) | 1.15
61 | TGGAAGACATGGACCGGTTTTCCCGGTAATCCGTATTTGTA (site AGGAAGACTTG) | 0.00598
62 | TGGAAGACATGGACCGGTTTTCCCGGTAATCCGTATTTGTA (site TGGAAGACTTA) | 2.36
63 | TGGAAGTCATGGACCGGTTTTCCCGGTAATCCGTATTTGGC (site TGGAAGTCTGC) | 2.31
64 | TGGAATACATGGACCGGTTTTCCCGGTAATCCGTATTTGTG (site TGGAATACTCA) | 1.12
65 | TGGAATCCATGGACCGGTTTTCCCGGTAATCCGTATTTGGT (site CGGAATCCTAA) | 0
66 | TGGAATCCATGGACCGGTTTTCCCGGTAATCCGTATTTGGT (site TGGAATCCTAC) | 0
67 | TGGACTACATGGACCGGTTTTCCCGGTAATCCGTATTTGGA (site TGGACTACTTC) | 0.786
68 | TGGACTTCATGGACCGGTTTTCCCGGTAATCCGTATTTGTG (site TGGACTTCTCA) | 0.248
69 | TGGATTCCATGGACCGGTTTTCCCGGTAATCCGTATTTGAT (site TGGATTCCTAT) | 0
70 | TGGCAGGCATGGACCGGTTTTCCCGGTAATCCGTATTTGGC (site TGGCAGGCTGC) | 0.909
71 | TGGCAGGCATGGACCGGTTTTCCCGGTAATCCGTATTTGGC (site TGGCCGGCTGC) | 0
72 | TGGCAGGCATGGACCGGTTTTCCCGGTAATCCGTATTTGGC (site TGGCGGGCTGC) | 0
73 | TGGCAGGCATGGACCGGTTTTCCCGGTAATCCGTATTTGGC (site TGGCTGGCTGC) | 0
74 | TGGCCGGCATGGACCGGTTTTCCCGGTAATCCGTATTTGCC (site TGGCCGGCTGA) | 0.00339
75 | TGGCCGGCATGGACCGGTTTTCCCGGTAATCCGTATTTGCC (site TGGCCGGCTGC) | 0
